Test results from patent US20250066345A1, “COMPOSITIONS AND METHODS OF USE TO TREAT 12-LIPOXYGENASE (12-LOX) MEDIATED DISEASES” (VERALOX THERAPEUTICS, priority 2021, published 2025).

Experiments:
12-LOX = 12-LOX (Homo sapiens (Human), UniProt P18054); assay: 12-LOX IC50 determination, UV-Vis assay with arachidonic acid substrate; format: biochemical; settings: 30 nM 12-LOX, 50 μM AA, absorbance of 12-HPETE at 234 nm
Protocol: (§1) The compounds were evaluated for inhibition of 12-LOX, as well as selectivity by measuring inhibition against 15-LOX for some compounds, using a UV-Vis assay. Arachidonic acid (AA) was used as a substrate for 12-LOX and 15-LOX. ML355 was used as the control inhibitor for 12-LOX. ML351 (5-(Methylamino)-2-(1-naphthalenyl)-4-oxazolecarbonitrile) was used as the control inhibitor for 15-LOX.
(§2) Reaction buffers used for the lipoxygenase assay were as follows: 25 mM HEPES (pH 7.5), with 0.01% Triton X-100. 1 mM 12-HPETE or 1 mM 15-HPETE stock solution was prepared in 25 mM HEPES with 0.01% Triton X-100.
The standard curve of 12-HPETE was made by serial dilution of 0, 6.25, 12.5, 25, 50, 75 and 100 μM, and the final reaction volume in 96 Well Clear Flat Bottom UV-Transparent Microplate is 100 μL. The absorbance of the 12-HPETE at each concentration was measured at 234 nm.
(§3) IC50 values were obtained by determining the % inhibition at various inhibitor concentrations. The final concentrations of the control inhibitors and test compounds in the IC50 determination assay are 0, 0.03, 0.1, 0.3, 1, 3, 10 and 20 μM. The final concentration of DMSO in the assay is 0.05%.
12-LOX IC50 determination. The 12-LOX enzyme and AA were diluted in the HEPES buffer to 120 nM and 200 μM, respectively. Pre-incubation 50 μL of indicated test compounds and 25 μL 120 nM enzyme at room temperature for 5 min. The reaction is started by adding 25 μL 200 μM AA. After a short spin (1000 rpm, 15 s), incubate the reaction system for 5 min. The blank control was set by adding 25 μL HEPES to 50 μL of control inhibitor compound (MHL355) and 25 μL 200 μM AA. The final concentrations of 12-LOX enzyme and AA were 30 nM and 50 μM, respectively. The absorbance of the 12-HPETE at 234 nm was measured.
(§4) The IC50 value was calculated by using GraphPad Prism 8.0.2.
(§5) The IC50 values are calculated with remaining activity (%) and logarithm of inhibitor concentrations.
(§6) Remaining Activity (%)=OD value inhibitor/OD value vehicle×100

15-LOX = 15-LOX (Homo sapiens (Human), UniProt P16050); assay: 15-LOX IC50 determination, UV-Vis assay with arachidonic acid substrate (selectivity); format: biochemical; settings: selectivity for 12-LOX over 15-LOX; 120 nM 15-LOX, AA substrate
Protocol: as §1, §2
The standard curve of 15-HPETE was made by serial dilution of 0, 3.125, 6.25, 12.5, 25, 50 and 100 μM, and the final reaction volume in 96 Well Clear Flat Bottom UV-Transparent Microplate is 100 μL. The absorbance of the […] at each concentration was measured at 234 nm.
as §3
15-LOX IC50 determination. The 15-LOX enzyme and AA were diluted in the HEPES buffer to 480 nM and 200 μM, respectively. Pre-incubation 50 μL of indicated test compounds and 25 μL 480 nM enzyme at room temperature for 5 min. The reaction is started by adding 25 μL 200 μM AA. After a short spin (1000 rpm, 15 s), incubate the reaction system for 3 min. The blank control was set by adding 25 μL HEPES to 50 μL of control inhibitor compound (MHL355) and 25 μL 200 μM AA. The final concentrations of 15-LOX enzyme and AA were 120 nM and 50 µM, respectively. The absorbance of the 15-HPETE at 234 nm was measured. The assay was performed in duplicate.
as §4, §5, §6

Chain of 12-LOX (P18054 whole entry): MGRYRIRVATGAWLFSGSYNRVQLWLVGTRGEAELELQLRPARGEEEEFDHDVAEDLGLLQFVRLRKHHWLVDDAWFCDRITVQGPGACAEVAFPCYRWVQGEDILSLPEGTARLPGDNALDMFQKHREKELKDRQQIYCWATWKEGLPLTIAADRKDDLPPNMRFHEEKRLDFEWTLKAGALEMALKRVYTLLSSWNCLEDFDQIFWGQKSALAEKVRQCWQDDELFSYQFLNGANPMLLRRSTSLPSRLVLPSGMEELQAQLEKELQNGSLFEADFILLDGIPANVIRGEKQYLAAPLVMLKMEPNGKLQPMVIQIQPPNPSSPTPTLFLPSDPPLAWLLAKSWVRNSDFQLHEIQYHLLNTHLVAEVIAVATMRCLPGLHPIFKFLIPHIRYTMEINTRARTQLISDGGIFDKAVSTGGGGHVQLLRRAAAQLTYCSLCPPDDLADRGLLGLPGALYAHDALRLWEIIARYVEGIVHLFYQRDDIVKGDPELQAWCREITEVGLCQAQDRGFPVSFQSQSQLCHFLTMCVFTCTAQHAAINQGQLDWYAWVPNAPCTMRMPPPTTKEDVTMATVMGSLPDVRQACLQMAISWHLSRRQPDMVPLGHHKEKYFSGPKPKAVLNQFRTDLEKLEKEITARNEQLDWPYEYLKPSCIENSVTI
Chain of 15-LOX (P16050 whole entry): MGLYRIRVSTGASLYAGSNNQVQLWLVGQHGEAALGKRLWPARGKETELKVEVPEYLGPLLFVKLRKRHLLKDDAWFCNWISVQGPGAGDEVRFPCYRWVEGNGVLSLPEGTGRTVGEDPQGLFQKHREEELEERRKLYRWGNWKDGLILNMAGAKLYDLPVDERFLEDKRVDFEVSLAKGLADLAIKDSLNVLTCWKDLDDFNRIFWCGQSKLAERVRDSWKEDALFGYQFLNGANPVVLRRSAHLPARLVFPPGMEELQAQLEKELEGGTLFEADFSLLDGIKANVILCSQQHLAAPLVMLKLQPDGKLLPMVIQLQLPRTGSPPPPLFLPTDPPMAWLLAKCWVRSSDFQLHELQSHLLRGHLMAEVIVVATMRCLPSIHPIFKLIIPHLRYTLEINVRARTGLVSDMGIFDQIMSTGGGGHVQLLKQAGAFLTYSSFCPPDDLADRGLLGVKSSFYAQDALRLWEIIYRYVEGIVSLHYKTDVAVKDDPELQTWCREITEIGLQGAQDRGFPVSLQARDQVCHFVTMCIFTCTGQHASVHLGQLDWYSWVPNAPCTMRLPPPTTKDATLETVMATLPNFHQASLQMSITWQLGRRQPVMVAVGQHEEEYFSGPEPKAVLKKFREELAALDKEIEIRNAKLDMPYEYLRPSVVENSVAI

| IC50 (12-LOX) | Selectivity over 15-LOX (15-LOX) | Structure (SMILES) |
| --- | --- | --- |
| < 250 nM | >50-fold | COc1cccc(CNc2ccc(S(=O)(=O)Nc3nc(-c4ccc(F)c(Cl)c4)c(F)s3)nc2)c1O [Compound I-1] |
| < 250 nM | >50-fold | COc1cccc(CNc2ccc(S(=O)(=O)Nc3nc(-c4ccc(Cl)c(F)c4)c(F)s3)nc2)c1O [Compound I-2] |
| < 250 nM | >20-fold | COc1cccc(CNc2ccc(S(=O)(=O)Nc3nc(-c4ccc(C(C)C)cc4)c(F)s3)nc2)c1O [Compound I-3] |
| < 250 nM | >50-fold | COc1cccc(CNc2ccc(S(=O)(=O)Nc3nc(-c4ccc(F)c(F)c4)c(F)s3)nc2)c1O [Compound I-6] |
| < 250 nM | >50-fold | COc1cccc(CNc2ccc(S(=O)(=O)Nc3nc(-c4ccc(F)c(F)c4)cs3)nc2)c1O [Compound I-7] |
| 250 to 1000 nM | >50-fold | COc1cccc(CNc2ccc(S(=O)(=O)Nc3nc(-c4ccc(F)c(Cl)c4)cs3)nc2)c1O [Compound I-9] |
| < 250 nM | >50-fold | COc1cccc(CNc2ccc(S(=O)(=O)Nc3nc(-c4ccc(C(F)(F)F)c(F)c4)cs3)nc2)c1O [Compound I-12] |
| < 250 nM | >50-fold | COc1cccc(CNc2ccc(S(=O)(=O)Nc3nc4c(ccc5ccccc54)s3)nc2)c1O [Compound I-13] |
| > 1000 nM | <10-fold | COc1cccc(CNc2cnc(S(=O)(=O)Nc3nc(-c4ccc(F)c(Cl)c4)c(F)s3)cc2C)c1O [Compound I-15] |
| < 250 nM | >50-fold | COc1cccc(CNc2cnc(S(=O)(=O)Nc3nc(-c4ccc(F)c(Cl)c4)c(F)s3)c(C)c2)c1O [Compound I-16] |
| < 250 nM | >20-fold | COc1cccc(CNc2cnc(S(=O)(=O)Nc3nc(-c4ccc(F)c(Cl)c4)c(F)s3)c(C(F)(F)F)c2)c1O [Compound I-17] |
| < 250 nM | >50-fold | COc1cccc(CNc2ccc(S(=O)(=O)Nc3nc(-c4ccc(C(F)(F)F)c(F)c4)c(F)s3)nc2)c1O [Compound I-25] |
| < 250 nM | >50-fold | COc1cccc(CNc2cnc(S(=O)(=O)Nc3nc(-c4ccc(F)c(Cl)c4)cs3)c(C)c2)c1O [Compound I-41] |
| < 250 nM | >50-fold | COc1cccc(CNc2cnc(S(=O)(=O)Nc3nc(-c4ccc(F)c(Cl)c4)c(F)s3)c(-c3ccccc3)c2)c1O [Compound I-42] |
| > 1000 nM | <20-fold | COc1cccc(CNc2cnc(S(=O)(=O)Nc3nc(-c4ccc(F)c(Cl)c4)c(F)s3)c(C3CC3)c2)c1O [Compound I-43] |
| < 250 nM | >50-fold | [2H]C([2H])([2H])Oc1cccc(CNc2ccc(S(=O)(=O)Nc3nc(-c4ccc(Cl)c(F)c4)c(F)s3)nc2)c1O [Compound I-49] |

The remaining lines, values behind:

| Structure (SMILES) | IC50 (12-LOX) | Selectivity over 15-LOX (15-LOX) |
| --- | --- | --- |
| COc1cccc(CNc2ccc(S(=O)(=O)Nc3nc(-c4ccc(C(C)C)cc4)cs3)nc2)c1O [Compound I-4] | < 250 nM | >50-fold |
| COc1cccc(CNc2ccc(S(=O)(=O)Nc3nc(-c4ccc(C5CC5)cc4)cs3)nc2)c1O [Compound I-5] | < 250 nM | >50-fold |
| COc1cccc(CNc2ccc(S(=O)(=O)Nc3nc(-c4ccc(Cl)c(F)c4)cs3)nc2)c1O [Compound I-8, N-(4-(4-chloro-3-fluorophenyl)thiazol-2-yl)-5-((2-hydroxy-3-methoxybenzyl)amino)pyridine-2-sulfonamide] | < 250 nM | >50-fold |
| COc1cccc(CNc2ccc(S(=O)(=O)Nc3nc4ccccc4s3)nc2)c1O [Compound I-10] | > 1000 nM |  |
| COc1cccc(CN(C)c2ccc(S(=O)(=O)Nc3nc(-c4ccc(F)c(F)c4)c(F)s3)nc2)c1O [Compound I-11] | 250 to 1000 nM | >20-fold |
| COc1cccc(CNc2ccc(S(=O)(=O)Nc3nc(-c4ccc(F)c(Cl)c4)c(F)s3)nc2C)c1O [Compound I-14] | 250 to 1000 nM | ~10-fold |
| COc1cccc(CNc2cnc(S(=O)(=O)Nc3nc(-c4ccc(F)c(F)c4)c(F)s3)c(C)c2)c1O [Compound I-18, N-(4-(3,4-difluorophenyl)-5-fluorothiazol-2-yl)-5-((2-hydroxy-3-methoxybenzyl)amino)-3-methylpyridine-2-sulfonamide] | < 250 nM | >50-fold |
| COc1cccc(CN(C)c2cnc(S(=O)(=O)Nc3nc(-c4ccc(F)c(F)c4)cs3)c(C)c2)c1O [Compound I-19] | > 1000 nM |  |
| COc1cccc(CNc2cnc(S(=O)(=O)Nc3nc(-c4ccc(F)c(F)c4)c(F)s3)c(C(F)(F)F)c2)c1O [Compound I-22] | > 1000 nM | <10-fold |
| COc1cccc(CNc2cnc(S(=O)(=O)Nc3nc(-c4ccc(Cl)c(F)c4)c(F)s3)c(C)c2)c1O [Compound I-23] | < 250 nM | >50-fold |
| COc1cccc(CNc2ccc(S(=O)(=O)Nc3nc(-c4ccc(F)c(Cl)c4)c(CO)s3)nc2)c1O [Compound I-24] | < 250 nM | >50-fold |
| COc1cccc(CNc2cnc(S(=O)(=O)Nc3nc(-c4ccc(F)c(F)c4)cs3)c(C)c2)c1O [Compound I-39] | < 250 nM | >50-fold |
| COc1cccc(CNc2cnc(S(=O)(=O)Nc3nc(-c4ccc(Cl)c(F)c4)cs3)c(C)c2)c1O [Compound I-40] | < 250 nM | >50-fold |
| Cc1cc(NCc2cccc(OC(F)(F)F)c2O)cnc1S(=O)(=O)Nc1nc(-c2ccc(F)c(Cl)c2)c(F)s1 [Compound I-45] | > 1000 nM | <20-fold |
| CCOc1cccc(CNc2cnc(S(=O)(=O)Nc3nc(-c4ccc(F)c(Cl)c4)c(F)s3)c(C)c2)c1O [Compound I-46] | > 1000 nM | <20-fold |
| [2H]C([2H])([2H])Oc1cccc(CNc2cnc(S(=O)(=O)Nc3nc(-c4ccc(Cl)c(F)c4)c(F)s3)c(C([2H])([2H])[2H])c2)c1O [Compound I-47] | > 1000 nM | <20-fold |
| [2H]C([2H])([2H])Oc1cccc(CNc2cnc(S(=O)(=O)Nc3nc(-c4ccc(Cl)c(F)c4)c(F)s3)c(C)c2)c1O [Compound I-48] | < 250 nM | >50-fold |
| [2H]C([2H])([2H])Oc1cccc(CNc2cnc(S(=O)(=O)Nc3nc(-c4ccc(F)c(F)c4)c(F)s3)c(C)c2)c1O [Compound I-50] | 250 to 1000 nM | >50-fold |
| [2H]C([2H])([2H])Oc1cccc(CNc2cnc(S(=O)(=O)Nc3nc(-c4ccc(F)c(Cl)c4)c(F)s3)c(C)c2)c1O [Compound I-51] | < 250 nM | >50-fold |
